Test results published in patent US10647700B2, “EZH2 inhibitor and use thereof” (TARAPEUTICS SCIENCE INC., priority 2017, dated 2020).

How the values were obtained:
[1] = tested on: H3K27m3 methylation in Pfeiffer cells; test: Western Blot of H3K27m3 methylation in Pfeiffer cells; type: cell-based; settings: for IC50: 72 hours treatment, H3K27m3 methylation by Western Blot
Experimental: Meanwhile, the inventors further conducted Western Blot with Pfeiffer cells (purchased from ATCC, USA) for verification. […] Effect of compounds on H3K27m3 methylation in cells was assessed.

[2] = molecular target: PRC2 protein complex comprising EZH2(Y641F) (Homo sapiens (Human), UniProt Q15910, Y641F); test: EZH2(Y641F) TR-FRET enzymatic activity assay; settings: for activity compared with control compounds in the assay using a TR-FRET kit: versus GSK126 and EPZ6438
Sequence of PRC2 protein complex comprising EZH2(Y641F) (Q15910 whole entry Y641F): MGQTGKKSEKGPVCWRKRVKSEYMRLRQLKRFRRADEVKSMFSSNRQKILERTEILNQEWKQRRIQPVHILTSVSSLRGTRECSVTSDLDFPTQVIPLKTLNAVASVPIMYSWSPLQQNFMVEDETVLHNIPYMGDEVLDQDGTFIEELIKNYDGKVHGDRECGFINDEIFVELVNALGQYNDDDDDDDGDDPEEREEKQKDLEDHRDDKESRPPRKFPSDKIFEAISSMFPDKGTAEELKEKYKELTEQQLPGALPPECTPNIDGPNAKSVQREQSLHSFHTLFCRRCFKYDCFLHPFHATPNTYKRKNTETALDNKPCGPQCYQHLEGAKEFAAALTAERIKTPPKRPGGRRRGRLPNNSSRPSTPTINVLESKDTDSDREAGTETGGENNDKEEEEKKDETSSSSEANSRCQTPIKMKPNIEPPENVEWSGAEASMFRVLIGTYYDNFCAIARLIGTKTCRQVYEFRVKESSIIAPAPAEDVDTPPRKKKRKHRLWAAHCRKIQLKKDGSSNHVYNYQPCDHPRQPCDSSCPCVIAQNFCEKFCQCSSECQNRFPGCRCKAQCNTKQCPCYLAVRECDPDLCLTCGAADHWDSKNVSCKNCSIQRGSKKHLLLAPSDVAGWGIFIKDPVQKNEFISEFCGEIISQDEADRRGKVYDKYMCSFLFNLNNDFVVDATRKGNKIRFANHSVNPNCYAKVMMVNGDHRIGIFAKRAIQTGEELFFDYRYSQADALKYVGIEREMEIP
Sequence of PRC2 protein complex comprising EZH2(Y641F) (O75530 whole entry partner): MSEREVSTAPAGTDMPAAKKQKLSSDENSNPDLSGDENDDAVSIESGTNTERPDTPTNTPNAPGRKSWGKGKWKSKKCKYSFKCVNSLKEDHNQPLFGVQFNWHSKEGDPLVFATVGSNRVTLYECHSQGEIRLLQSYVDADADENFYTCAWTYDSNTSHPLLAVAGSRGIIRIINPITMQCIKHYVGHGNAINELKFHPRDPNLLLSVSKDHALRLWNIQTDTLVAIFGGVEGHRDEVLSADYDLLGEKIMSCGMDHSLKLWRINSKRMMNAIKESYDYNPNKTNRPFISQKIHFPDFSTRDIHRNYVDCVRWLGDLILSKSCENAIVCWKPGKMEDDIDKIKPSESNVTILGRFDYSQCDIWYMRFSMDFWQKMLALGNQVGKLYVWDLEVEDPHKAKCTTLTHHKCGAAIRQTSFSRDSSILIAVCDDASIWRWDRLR
Sequence of PRC2 protein complex comprising EZH2(Y641F) (Q15022 whole entry partner): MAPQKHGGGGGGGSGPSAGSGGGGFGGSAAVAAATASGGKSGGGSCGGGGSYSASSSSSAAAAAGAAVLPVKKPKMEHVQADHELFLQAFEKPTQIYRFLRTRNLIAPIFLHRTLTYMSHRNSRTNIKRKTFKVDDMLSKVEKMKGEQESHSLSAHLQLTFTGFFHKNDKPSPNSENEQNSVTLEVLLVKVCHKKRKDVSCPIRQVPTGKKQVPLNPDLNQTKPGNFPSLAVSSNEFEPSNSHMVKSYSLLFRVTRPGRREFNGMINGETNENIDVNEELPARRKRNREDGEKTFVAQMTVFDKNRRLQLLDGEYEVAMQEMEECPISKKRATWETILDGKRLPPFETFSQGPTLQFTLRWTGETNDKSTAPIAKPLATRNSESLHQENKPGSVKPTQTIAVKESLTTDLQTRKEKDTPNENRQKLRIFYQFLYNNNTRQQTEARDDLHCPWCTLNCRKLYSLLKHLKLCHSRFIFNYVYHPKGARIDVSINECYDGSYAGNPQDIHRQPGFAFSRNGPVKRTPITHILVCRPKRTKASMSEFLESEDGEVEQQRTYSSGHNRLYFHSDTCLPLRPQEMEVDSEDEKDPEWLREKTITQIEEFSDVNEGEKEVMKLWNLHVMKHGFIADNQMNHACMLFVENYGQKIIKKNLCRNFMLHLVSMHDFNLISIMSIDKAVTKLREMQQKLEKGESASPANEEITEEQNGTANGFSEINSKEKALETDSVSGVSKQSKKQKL
Sequence of PRC2 protein complex comprising EZH2(Y641F) (Q09028 whole entry partner): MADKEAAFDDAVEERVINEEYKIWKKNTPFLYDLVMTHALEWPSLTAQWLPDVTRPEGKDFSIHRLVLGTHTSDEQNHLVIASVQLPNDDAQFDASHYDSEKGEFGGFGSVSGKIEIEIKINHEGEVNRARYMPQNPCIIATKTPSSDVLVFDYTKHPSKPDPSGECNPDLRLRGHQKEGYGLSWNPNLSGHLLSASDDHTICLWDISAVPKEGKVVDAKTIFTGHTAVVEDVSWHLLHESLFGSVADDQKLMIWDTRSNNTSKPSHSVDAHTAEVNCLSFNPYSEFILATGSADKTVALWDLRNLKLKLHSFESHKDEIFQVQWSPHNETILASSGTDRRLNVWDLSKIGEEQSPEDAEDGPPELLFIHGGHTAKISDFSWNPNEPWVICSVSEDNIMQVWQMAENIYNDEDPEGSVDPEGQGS
Sequence of PRC2 protein complex comprising EZH2(Y641F) (Q6ZN18 whole entry partner): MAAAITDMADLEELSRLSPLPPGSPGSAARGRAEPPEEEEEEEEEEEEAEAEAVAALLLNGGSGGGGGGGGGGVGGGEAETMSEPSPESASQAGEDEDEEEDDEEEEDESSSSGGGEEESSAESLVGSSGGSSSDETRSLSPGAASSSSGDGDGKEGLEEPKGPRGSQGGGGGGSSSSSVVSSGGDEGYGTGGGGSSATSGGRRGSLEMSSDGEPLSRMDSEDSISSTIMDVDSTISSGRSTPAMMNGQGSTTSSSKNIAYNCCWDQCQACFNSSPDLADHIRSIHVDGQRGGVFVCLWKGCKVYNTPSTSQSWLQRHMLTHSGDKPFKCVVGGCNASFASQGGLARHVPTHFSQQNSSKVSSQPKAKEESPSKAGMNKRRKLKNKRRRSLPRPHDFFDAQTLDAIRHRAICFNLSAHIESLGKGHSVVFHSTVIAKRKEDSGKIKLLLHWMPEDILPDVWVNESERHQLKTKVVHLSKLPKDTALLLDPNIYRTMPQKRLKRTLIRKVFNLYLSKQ
Experimental: Subsequently 5 μL of the assay antibody, H3K27me3-Eu(K)Ab (purchased from cisbio bioassays, USA, #61 KC3KAE) and 5 μL Streptavidin-XL665 (purchased from cisbio bioassays, USA, #610SAXLA), were added and incubated for 1 hour at room temperature.

EZH2 = EZH2 (Homo sapiens (Human), UniProt Q15910); test: E-cadherin promoter luciferase reporter gene primary screening in 293T cells; type: cell-based; settings: 293T cells treated for 24 hours, Dual-Glo luciferase; for 1 μM relative fluorescence intensity: compound 1 μM; for 10 μM relative fluorescence intensity: compound 10 μM
Sequence of EZH2 (Q15910 whole entry): as the sequence (Q15910 whole entry Y641F) above, with F641Y counted along it
Sequence of EZH2 (O75530 whole entry partner): as the sequence (O75530 whole entry partner) above
Sequence of EZH2 (Q15022 whole entry partner): as the sequence (Q15022 whole entry partner) above
Sequence of EZH2 (Q09028 whole entry partner): as the sequence (Q09028 whole entry partner) above
From the text: EZH2 suppresses the expression of downstream E-cadherin, and upon EZH2 suppression, expression of E-cadherin will increase. Based on such principle, a reporter gene expression vector was constructed using luciferase.
The amplified fragments after PCR and the PGL4.1 vector (purchased from TAKARA, Japan) were respectively subjected to enzyme digestion with SacI and BglII (purchased from TAKARA, Japan), and then purified with PCR cleanup kit (Axygen PCR cleanup kit). Subsequently, the purified and enzyme-digested PCR products was ligated to the purified and enzyme-digested PGL4.1 vector using ligase solution I (DNA Ligation Kit Ver.2.1, purchased from TAKARA, Japan), and subjected to transformation. Single clones were then screened out and subjected to sequencing, and the obtained positive plasmid containing promoter fragments of Ecadherin was named E-cadherin RE-PGL4.1.
Meanwhile, a Renilla fluorescent vector was constructed using PCDNA4.1 (purchased from Thermofisher, USA) as the template to amplify the fragment of CMV promoter. After enzymatic digestion of the amplified CMV sequences and pGL4.70 vector (purchased from Promega, USA) with KpnI and XhoI (purchased from Promega, USA), purification was conducted with PCR cleanup kit (Axygen PCR cleanup kit). Then the enzyme-digested PCR product was ligated to the enzyme-digested PGL4.70 vector using ligase solution I (DNA Ligation Kit Ver.2.1, purchased from TAKARA, Japan) and the resultant was subjected to transformation. Subsequently single clones were screened and subjected to sequencing, and the obtained plasmid that contained CMV sequence was named as Plasmid Renilla luciferase-pGL4.70. Said plasmid utilized CMV promoter to achieve high expression of Renilla luciferase, which served as the control fluorescence for the primary screening system.
The cells were firstly added with 20 μL Dual-Glo® Luciferase Assay Reagent, then incubated under room temperature for 10 minutes, and read on microplate reader Spectramax i3 (Molecular Devices, USA) to obtain the data of primary screening, which is shown in Table 1.

Structure (SMILES)	IC50 ([1]; Homo sapiens) [µM]	IC50 [2] [nM]	1 μM relative fluorescence intensity (EZH2)	10 μM relative fluorescence intensity (EZH2)	further results
CCN(C(=O)C1CC1)c1cc(-c2ccc(CN3CCOCC3)cc2)cc(C(=O)NCc2c(C)cc(C)[nH]c2=O)c1C [Compound 5, N-((4,6-dimethyl-2-oxo-1,2-dihydropyridin-3-yl)methyl)-5-(N-ethylcyclopropanecarboxamido)-4-methyl-4′-(morpholinomethyl)-[1,1′-diphenyl]-3-carboxamide]	0.086	–	–	–	–
CCN(C(=O)C1CCCC1)c1cc(-c2ccc(CN3CCOCC3)cc2)cc(C(=O)NCc2c(C)cc(C)[nH]c2=O)c1C [Compound 16, N-((4,6-dimethyl-2-oxo-1,2-dihydropyridin-3-yl)methyl)-5-(N-ethylcyclopentanecarboxamido)-4-methyl-4′-(morpholinomethyl)-[1,1′-diphenyl]-3-carboxamide]	0.126	–	–	–	–
CCN(C(=O)C1CCCC1)c1cc(-c2ccc(CN3CCN(C(=O)OC(C)(C)C)CC3)cc2)cc(C(=O)NCc2c(C)cc(C)[nH]c2=O)c1C [Compound 24, tert-butyl-4-((3′-(((4,6-dimethyl-2-oxo-1,2-dihydropyridin-3-yl)methyl)carbamoyl)-5′-(N-ethylcyclopentanecarboxamido)-4′-methyl-[1,1′-diphenyl]-4-yl)methyl)piperazin-1-carboxylate]	0.073	80.6	–	–	activity compared with control compounds in the assay using a TR-FRET kit [2]: superior activity than control compounds GSK126 and EPZ6438
CCN(C(=O)C1CCCC1)c1cc(-c2ccc(N3CCN(C(=O)OC(C)(C)C)CC3)nc2)cc(C(=O)NCc2c(C)cc(C)[nH]c2=O)c1C [Compound 29, tertbutyl-4-(5-(3-(((4,6-dimethyl-2-oxo-1,2-dihydropyridin-3-yl)methyl)carbamoyl)-5-(N-ethylcyclopentanecarboxamido)-4-methylphenyl)pyridin-2-yl)piperazin-1-carboxylate]	2.6	–	176.86	364.77	–
CCN(C(=O)C1CCCC1)c1cc(-c2ccc(N3CCNCC3)cc2)cc(C(=O)NCc2c(C)cc(C)[nH]c2=O)c1C [Compound 31, N-((4,6-dimethyl-2-oxo-1,2-dihydropyridin-3-yl)methyl)-5-(N-ethylcyclopentanecarboxamido)-4-methyl-4′-(piperazin-1-yl)-[1,1′-diphenyl]-3-carboxamide]	0.087	444	–	–	–
CCN(C(=O)C1CCCC1)c1cc(-c2ccc(N3CCNCC3)nc2)cc(C(=O)NCc2c(C)cc(C)[nH]c2=O)c1C [Compound 32, N-((4,6-dimethyl-2-oxo-1,2-dihydropyridin-3-yl)methyl)-3-(N-ethylcyclopentanecarboxamido)-2-methyl-5-(6-(piperazin-1-yl)pyridin-3-yl)-benzamide]	0.95	–	–	–	–
CCN(C(=O)C1CCCC1)c1cc(C#N)cc(C(=O)NCc2c(C)cc(C)[nH]c2=O)c1C [Compound 33, 5-cyano-N-((4,6-dimethyl-2-oxo-1,2-dihydropyridin-3-yl)methyl)-3-(N-ethylcyclopentanecarboxamido)-2-methylbenzamide]	0.67	–	123.27	224.69	–
CCN(C(=O)C1CCCC1)c1cc(-c2ccnc(N3CCN(CC4CC4)CC3)c2)cc(C(=O)NCc2c(C)cc(C)[nH]c2=O)c1C [Compound 38, 5-(2-(4-(cyclopropylmethyl)piperazin-1-yl)pyridin-4-yl)-N-((4,6-dimethyl-2-oxo-1,2-dihydropyridin-3-yl)methyl)-3-(N-ethylcyclopentanecarboxamido)-2-methylbenzamide]	0.23	515	–	–	–
CC[C@H](C)n1cc(C)c2c(C(=O)NCc3c(C)cc(C)[nH]c3=O)cc(-c3ccc(N4CCNCC4)nc3)cc21 [GSK126, reference compound]	–	–	–	–	IC50 [1]: 1.4 µM

Further lines, with some results ahead:

IC50 ([1]; Homo sapiens) [µM]	IC50 [2] [nM]	1 μM relative fluorescence intensity (EZH2)	10 μM relative fluorescence intensity (EZH2)	Structure (SMILES)	further results
0.83	–	–	–	CCCc1cc(C)[nH]c(=O)c1CNC(=O)c1cc(-c2ccnc(N3CCN(CC4CC4)CC3)c2)cc(N(CC)C(=O)C2CCCC2)c1C [Compound 39, 5-(2-(4-(cyclopropylmethyl)piperazin-1-yl)pyridin-4-yl)-3-(N-ethylcyclopentanecarboxamido)-2-methyl-N-((6-methyl-2-oxo-4-propyl-1,2-dihydropyridin-3-yl)methyl)benzamide]	–
0.24	220	–	–	CCN(C(=O)C1CCCC1)c1cc(-c2ccc(OCCN3CCOCC3)cc2)cc(C(=O)NCc2c(C)cc(C)[nH]c2=O)c1C [Compound 40, N-((4,6-dimethyl-2-oxo-1,2-dihydropyridin-3-yl)methyl)-5-(N-ethylcyclopentanecarboxamido)-4-methyl-4′-(2-morpholinoethoxyl)-[1,1′-diphenyl]-3-carboxamide]	–
–	–	179.84	234.50	CCN(C(=O)C1CCCC1)c1cc(-c2ccc(OCCCN3CCOCC3)c(F)c2)cc(C(=O)NCc2c(C)cc(C)[nH]c2=O)c1C [Compound 42, N-((4,6-dimethyl-2-oxo-1,2-dihydropyridin-3-yl)methyl)-5-(N-ethylcyclopentanecarboxamido)-3′-fluoro-4-methyl-4′-(3-morpholinopropoxy)-[1,1′-diphenyl]-3-carboxamide]	–
–	–	147.30	235.05	CCN(C(=O)C1CCCC1)c1cc(-c2ccc(C(C)=O)s2)cc(C(=O)NCc2c(C)cc(C)[nH]c2=O)c1C [Compound 43, 5-(5-acetylthiophene-2-yl)-N-((4,6-dimethyl-2-oxo-1,2-dihydropyridin-3-yl)methyl)-3-(N-ethylcyclopentanecarboxamido)-2-methylbenzamide]	–
–	–	181.04	217.02	CCN(C(=O)C1CCCC1)c1cc(-c2ccc(OCCCN3CCOCC3)cc2F)cc(C(=O)NCc2c(C)cc(C)[nH]c2=O)c1C [Compound 44, N-((4,6-dimethyl-2-oxo-1,2-dihydropyridin-3-yl)methyl)-5-(N-ethylcyclopentanecarboxamido)-2′-fluoro-4-methyl-4′-(3-morpholinopropoxy)-[1,1′-diphenyl]-3-carboxamide]	–
–	–	189.05	218.76	CCN(C(=O)C1CCCC1)c1cc(-c2ccc(OCCCN3CCOCC3)cc2C)cc(C(=O)NCc2c(C)cc(C)[nH]c2=O)c1C [Compound 45, N-((4,6-dimethyl-2-oxo-1,2-dihydropyridin-3-yl)methyl)-5-(N-ethylcyclopentanecarboxamido)-2′,4-methyl-4′-(3-morpholinopropoxy)-[1,1′-diphenyl]-3-carboxamide]	–
–	–	143	171	CCN(C(=O)C1CC2C=CC1C2)c1cc(-c2ccc(CN3CCOCC3)cc2)cc(C(=O)NCc2c(C)cc(C)[nH]c2=O)c1C [Compound 60, (1R,4R)—N-(5-(((4,6-dimethyl-2-oxo-1,2-dihydropyridin-3-yl)methyl)carbamoyl-4-methyl-4′-(morpholinomethyl)-[1,1′-diphenyl]-3-yl)-N-ethylbicyclo[2.2.1]hept-5-en-2-carboxamide]	3 μM relative fluorescence intensity (EZH2; compound 3 μM): 140
0.43	103	–	–	CCN(C(=O)C1CCCC1)c1cc(-c2ccc(OCCN3CCOCC3)cc2C)cc(C(=O)NCc2c(C)cc(C)[nH]c2=O)c1C [Compound 63, N-((4,6-dimethyl-2-oxo-1,2-dihydropyridin-3-yl)methyl)-5-(N-ethylcyclopentanecarboxamido)-2′,4-dimethyl-4′-(2-morpholinoethoxyl)-[1,1′-diphenyl]-3-carboxamide]	activity compared with control compounds in the assay using a TR-FRET kit [2]: superior activity than control compounds GSK126 and EPZ6438
0.03	103	–	–	CCN(C(=O)C1CC1)c1cc(-c2ccc(OCCCN3CCOCC3)cc2C)cc(C(=O)NCc2c(C)cc(C)[nH]c2=O)c1C [Compound 64, N-((4,6-dimethyl-2-oxo-1,2-dihydropyridin-3-yl)methyl)-5-(N-ethylcyclopropanecarboxamido)-2′,4-dimethyl-4′-(3-morpholinopropoxy)-[1,1′-diphenyl]-3-carboxamide]	effect compared with control compounds in Western Blot verification on cells ([1]; versus EPZ6438 and GSK126): superior effects than control compounds EPZ6438 and GSK126; activity compared with control compounds in the assay using a TR-FRET kit [2]: superior activity than control compounds GSK126 and EPZ6438
